Experimental data taken from patent US4550186A, “Binuclear copper (II) carboxylates formed from amine-carboxyboranes” (Duke University, priority 1983, dated 1985).

Target: T1, ribonucleotide reductase (Mus musculus, UniProt P07742+P11157)
T1 construct: endogenous in cells; host or cells: Ehrlich ascites tumor cells
T1 sequence (P07742 1-792): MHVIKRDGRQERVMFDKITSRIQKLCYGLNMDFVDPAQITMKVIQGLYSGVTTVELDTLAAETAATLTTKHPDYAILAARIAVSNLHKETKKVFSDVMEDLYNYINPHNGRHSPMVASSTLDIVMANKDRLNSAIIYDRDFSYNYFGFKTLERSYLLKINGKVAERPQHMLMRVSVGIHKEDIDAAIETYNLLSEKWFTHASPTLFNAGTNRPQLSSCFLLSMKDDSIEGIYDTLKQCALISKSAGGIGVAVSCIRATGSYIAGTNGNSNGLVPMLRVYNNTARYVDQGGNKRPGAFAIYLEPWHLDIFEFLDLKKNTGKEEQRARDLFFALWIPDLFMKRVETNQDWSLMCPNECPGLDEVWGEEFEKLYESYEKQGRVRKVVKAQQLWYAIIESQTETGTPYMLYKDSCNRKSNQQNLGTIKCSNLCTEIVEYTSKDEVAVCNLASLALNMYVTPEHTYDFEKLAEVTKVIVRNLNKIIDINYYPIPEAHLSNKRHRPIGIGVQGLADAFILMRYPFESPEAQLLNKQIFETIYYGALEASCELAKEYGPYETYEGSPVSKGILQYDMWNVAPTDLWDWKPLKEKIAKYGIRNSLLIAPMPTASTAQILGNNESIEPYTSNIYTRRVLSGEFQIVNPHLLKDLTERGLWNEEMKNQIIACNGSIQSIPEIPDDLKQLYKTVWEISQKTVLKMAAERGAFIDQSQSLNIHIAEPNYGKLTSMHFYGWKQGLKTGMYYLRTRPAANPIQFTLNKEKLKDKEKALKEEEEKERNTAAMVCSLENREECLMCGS
T1 sequence (P11157 1-390): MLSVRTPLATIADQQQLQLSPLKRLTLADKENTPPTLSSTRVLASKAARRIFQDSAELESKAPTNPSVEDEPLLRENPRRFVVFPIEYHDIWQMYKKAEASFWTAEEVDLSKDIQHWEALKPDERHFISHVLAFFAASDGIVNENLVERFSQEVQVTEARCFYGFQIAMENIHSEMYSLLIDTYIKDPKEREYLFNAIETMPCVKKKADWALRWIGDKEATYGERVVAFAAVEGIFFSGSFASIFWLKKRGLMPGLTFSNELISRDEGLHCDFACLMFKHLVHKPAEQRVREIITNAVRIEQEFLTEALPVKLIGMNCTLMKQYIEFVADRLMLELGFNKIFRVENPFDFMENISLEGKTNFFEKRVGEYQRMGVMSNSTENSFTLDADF
Test: In vivo ribonucleotide reductase activity
Method: CF1 male mice (~30 g) were implanted with 2×10^6 Ehrlich ascites tumor cells, intraperitoneally on Day 0. Compound I was suspended by homogenation in 0.05% polysorbate.80-water and administered intraperitoneally at 10 and 20 mg/kg for 9 days to determine its effectiveness for inhibition of tumor growth. Mice were sacrificed on Day 10, and the ascites fluid was collected from the peritoneal cavity. The volume and ascrit (packed cell volume) were determined for each animal and the percent inhibition of tumor growth was calculated. For the metabolic studies, mice were treated on Days 8 and 9 with 10 mg/kg of Compound I, intraperitoneally. […]
Carbamyl phosphate synthetase activity was determined using the reaction medium of Kalman et al [Am. […] Citrulline formed from ornithine was measured at 490 nm by the method of Archibald [J. Biol. Chem., 156, 121 (1944)]. […] The ^14 CO2 generated in 15 min was trapped in 1M KOH and counted. Thymidylate synthetase activity was determined using a post-mitochondrial supernatant (9000 g×10 min) and 5 μCi of 5-^3 H-deoxyuridine monophosphate (14 Ci/mmol) according to the method of Kampf et al [ J. Med. Chem., 19, 903 (1976)]. ^14 C-Formate incorporation into purines was determined by the method of Spassova et al [Biochem. Pharmacol., 25, 923 (1976)] using 0.5 μCi of ^14 C-formic acid (52.0 mCi/mmol). […] The Rf value for xanthine monophosphate was scraped and counted. […]

## {Cu[(CH3)3 N.BH2 CO2 ]2.(CH3)3 N.BH2 COOH} [Compound I]
  Ribonucleotide reductase activity: unaffected
10 mg/kg/day I.P. on Days 8 and 9
  Riboncleotide reductase activity: 101 ± 8 % Control
